Experimental findings from ChEMBL document CHEMBL1201862, “PubChem BioAssay data set” (2004) are described below.

Activity calls are given as the source filed them.

The nature of test [1]: ZM109 Env clade C HIV-1 fusion inhibitors, dose response, HeLa effector, CEM target cells, luciferase, cherry-pick (AID 652058). Format: functional, cell-based.
Test [2] in a line: inhibitors of HIV Env-driven cell fusion, dose response, cherry-pick (AID 652057). Format: functional, cell-based.
In another test the target is T1, Protein skinhead-1 (Caenorhabditis elegans, UniProt P34707).
T1 sequence (P34707 whole entry): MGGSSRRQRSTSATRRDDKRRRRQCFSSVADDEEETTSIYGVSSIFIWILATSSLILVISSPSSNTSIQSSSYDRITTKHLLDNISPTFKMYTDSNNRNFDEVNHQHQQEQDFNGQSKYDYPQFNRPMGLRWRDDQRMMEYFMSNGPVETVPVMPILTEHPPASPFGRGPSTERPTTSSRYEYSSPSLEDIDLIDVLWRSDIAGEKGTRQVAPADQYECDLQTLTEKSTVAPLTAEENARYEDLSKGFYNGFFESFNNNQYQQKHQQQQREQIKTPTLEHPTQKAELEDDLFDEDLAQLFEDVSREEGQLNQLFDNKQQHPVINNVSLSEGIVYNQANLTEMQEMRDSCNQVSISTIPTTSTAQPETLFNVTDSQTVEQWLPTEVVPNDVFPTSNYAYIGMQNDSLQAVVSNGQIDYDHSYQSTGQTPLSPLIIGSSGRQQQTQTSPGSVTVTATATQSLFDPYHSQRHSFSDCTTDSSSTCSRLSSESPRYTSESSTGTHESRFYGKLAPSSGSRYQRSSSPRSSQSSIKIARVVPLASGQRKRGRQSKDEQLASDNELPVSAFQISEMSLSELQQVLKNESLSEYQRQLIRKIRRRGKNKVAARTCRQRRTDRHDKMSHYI
Format: functional.

In test [3] the target is T2, DNA repair and recombination protein RAD54-like (Homo sapiens, UniProt Q92698).
T2 sequence (Q92698 whole entry): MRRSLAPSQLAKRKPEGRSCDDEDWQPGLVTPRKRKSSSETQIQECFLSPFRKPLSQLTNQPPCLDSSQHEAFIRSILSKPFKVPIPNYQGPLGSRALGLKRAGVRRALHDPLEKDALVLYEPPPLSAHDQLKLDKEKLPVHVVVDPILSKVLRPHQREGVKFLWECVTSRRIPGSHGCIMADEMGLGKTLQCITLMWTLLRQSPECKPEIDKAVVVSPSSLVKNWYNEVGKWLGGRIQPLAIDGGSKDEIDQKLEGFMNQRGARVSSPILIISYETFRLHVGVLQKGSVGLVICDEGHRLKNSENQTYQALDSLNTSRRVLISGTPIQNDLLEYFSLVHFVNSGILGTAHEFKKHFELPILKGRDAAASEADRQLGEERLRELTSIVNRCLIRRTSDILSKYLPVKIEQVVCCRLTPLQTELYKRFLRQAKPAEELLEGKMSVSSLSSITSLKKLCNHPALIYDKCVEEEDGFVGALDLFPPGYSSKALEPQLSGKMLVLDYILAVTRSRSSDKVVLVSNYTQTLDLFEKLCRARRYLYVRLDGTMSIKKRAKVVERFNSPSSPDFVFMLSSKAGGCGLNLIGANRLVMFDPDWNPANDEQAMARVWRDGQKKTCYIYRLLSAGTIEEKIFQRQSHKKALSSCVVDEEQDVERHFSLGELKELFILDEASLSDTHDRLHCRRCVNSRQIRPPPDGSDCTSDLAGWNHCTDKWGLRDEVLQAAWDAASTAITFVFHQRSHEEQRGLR
The experiment in a line: inhibitors of human RAD54 branch migration, confirmation, biochemical, fluorescence, cherry-picked samples, dose series (AID 651657). It is filed as functional.

The target in test [4] is T3, DNA repair protein RAD52 homolog (Homo sapiens, UniProt P43351).
T3 sequence (P43351 whole entry): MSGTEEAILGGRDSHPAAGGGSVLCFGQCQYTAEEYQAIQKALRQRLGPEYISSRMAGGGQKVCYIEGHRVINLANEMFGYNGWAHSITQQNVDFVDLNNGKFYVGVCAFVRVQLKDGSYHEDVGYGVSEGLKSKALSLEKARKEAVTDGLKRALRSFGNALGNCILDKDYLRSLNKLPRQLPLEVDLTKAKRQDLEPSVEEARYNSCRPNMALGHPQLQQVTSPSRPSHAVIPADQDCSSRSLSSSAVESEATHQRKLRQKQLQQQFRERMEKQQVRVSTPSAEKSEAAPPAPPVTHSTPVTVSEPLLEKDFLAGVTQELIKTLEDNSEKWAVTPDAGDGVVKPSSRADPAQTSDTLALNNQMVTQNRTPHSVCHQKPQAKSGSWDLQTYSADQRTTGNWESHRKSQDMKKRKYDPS
Format: functional, biochemical.

The target of test [5] is T4, Rac GTPase-activating protein 1 (Homo sapiens, UniProt Q9H0H5).
T4 sequence (Q9H0H5 whole entry): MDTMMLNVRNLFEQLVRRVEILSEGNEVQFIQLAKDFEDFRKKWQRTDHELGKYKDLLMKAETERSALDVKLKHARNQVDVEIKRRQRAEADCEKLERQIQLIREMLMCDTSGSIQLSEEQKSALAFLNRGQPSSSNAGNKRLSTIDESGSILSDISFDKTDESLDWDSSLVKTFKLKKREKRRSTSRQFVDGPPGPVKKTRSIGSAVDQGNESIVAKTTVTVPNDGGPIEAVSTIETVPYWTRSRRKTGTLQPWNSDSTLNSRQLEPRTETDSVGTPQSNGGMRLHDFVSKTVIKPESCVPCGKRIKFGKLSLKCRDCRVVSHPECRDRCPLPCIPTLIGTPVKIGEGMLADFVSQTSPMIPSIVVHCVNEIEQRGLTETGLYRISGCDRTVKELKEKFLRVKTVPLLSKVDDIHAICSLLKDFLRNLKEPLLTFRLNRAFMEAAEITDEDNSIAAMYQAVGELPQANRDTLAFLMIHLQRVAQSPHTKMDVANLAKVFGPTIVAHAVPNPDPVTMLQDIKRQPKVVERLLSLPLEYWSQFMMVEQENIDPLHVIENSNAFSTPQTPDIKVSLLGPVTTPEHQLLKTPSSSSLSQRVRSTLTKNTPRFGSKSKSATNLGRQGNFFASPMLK
The experiment in a line: MgcRacGAP GTPase-activating activity inhibitors, confirmation, biochemical, ADP Hunter fluorescence, primary and confirmatory (AID 624330). It is filed as functional.

Test [6] addresses T5, Fatty acid synthase (Homo sapiens, UniProt P49327). Kind of test: FAS thioesterase domain inhibitors, dose response, biochemical, kinetic fluorescence intensity (AID 624326).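 Note: rate of fluorescence rise from hydrolysis of a fluorogenic O-methyl fluorescein ester substrate.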 Format: functional.
For test [7], the target named is T5, Fatty acid synthase. The experiment in a line: FAS thioesterase domain inhibitors, dose response, biochemical, endpoint fluorescence intensity, uHTS hits (AID 624327).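 Note: fluorescence from hydrolysis of an O-methyl fluorescein acyl ester substrate by the enzyme.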 Format: functional.
For a further test, the target named is Cytochrome P450 2C9 (Homo sapiens, UniProt P11712).
Sequence of Cytochrome P450 2C9 (P11712 whole entry, the tested form may be a part): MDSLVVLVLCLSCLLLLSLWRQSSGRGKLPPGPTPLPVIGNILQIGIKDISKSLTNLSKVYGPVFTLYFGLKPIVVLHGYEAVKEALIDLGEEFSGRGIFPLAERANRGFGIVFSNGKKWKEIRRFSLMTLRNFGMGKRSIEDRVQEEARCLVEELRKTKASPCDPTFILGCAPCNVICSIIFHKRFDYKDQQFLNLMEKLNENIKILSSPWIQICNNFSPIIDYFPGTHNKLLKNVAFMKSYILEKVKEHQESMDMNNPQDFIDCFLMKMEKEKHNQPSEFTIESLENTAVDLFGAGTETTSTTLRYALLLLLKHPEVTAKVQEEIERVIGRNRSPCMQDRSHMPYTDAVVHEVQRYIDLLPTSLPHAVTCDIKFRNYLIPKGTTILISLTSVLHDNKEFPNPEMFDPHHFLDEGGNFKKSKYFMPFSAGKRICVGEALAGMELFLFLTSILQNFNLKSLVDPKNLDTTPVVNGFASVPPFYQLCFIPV
Test [8] can be described thus: inhibitors of clade B AD8 Env fusion, dose response, cell-based, cherry-pick (AID 652062).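 Note: luciferase signal from cell-cell fusion driven by HIV-1 clade B AD8 Env; potency is for inhibitors of fusion seen as a drop in luminescence.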 Format: functional.

T5 sequence (P49327 whole entry, the tested form may be a part): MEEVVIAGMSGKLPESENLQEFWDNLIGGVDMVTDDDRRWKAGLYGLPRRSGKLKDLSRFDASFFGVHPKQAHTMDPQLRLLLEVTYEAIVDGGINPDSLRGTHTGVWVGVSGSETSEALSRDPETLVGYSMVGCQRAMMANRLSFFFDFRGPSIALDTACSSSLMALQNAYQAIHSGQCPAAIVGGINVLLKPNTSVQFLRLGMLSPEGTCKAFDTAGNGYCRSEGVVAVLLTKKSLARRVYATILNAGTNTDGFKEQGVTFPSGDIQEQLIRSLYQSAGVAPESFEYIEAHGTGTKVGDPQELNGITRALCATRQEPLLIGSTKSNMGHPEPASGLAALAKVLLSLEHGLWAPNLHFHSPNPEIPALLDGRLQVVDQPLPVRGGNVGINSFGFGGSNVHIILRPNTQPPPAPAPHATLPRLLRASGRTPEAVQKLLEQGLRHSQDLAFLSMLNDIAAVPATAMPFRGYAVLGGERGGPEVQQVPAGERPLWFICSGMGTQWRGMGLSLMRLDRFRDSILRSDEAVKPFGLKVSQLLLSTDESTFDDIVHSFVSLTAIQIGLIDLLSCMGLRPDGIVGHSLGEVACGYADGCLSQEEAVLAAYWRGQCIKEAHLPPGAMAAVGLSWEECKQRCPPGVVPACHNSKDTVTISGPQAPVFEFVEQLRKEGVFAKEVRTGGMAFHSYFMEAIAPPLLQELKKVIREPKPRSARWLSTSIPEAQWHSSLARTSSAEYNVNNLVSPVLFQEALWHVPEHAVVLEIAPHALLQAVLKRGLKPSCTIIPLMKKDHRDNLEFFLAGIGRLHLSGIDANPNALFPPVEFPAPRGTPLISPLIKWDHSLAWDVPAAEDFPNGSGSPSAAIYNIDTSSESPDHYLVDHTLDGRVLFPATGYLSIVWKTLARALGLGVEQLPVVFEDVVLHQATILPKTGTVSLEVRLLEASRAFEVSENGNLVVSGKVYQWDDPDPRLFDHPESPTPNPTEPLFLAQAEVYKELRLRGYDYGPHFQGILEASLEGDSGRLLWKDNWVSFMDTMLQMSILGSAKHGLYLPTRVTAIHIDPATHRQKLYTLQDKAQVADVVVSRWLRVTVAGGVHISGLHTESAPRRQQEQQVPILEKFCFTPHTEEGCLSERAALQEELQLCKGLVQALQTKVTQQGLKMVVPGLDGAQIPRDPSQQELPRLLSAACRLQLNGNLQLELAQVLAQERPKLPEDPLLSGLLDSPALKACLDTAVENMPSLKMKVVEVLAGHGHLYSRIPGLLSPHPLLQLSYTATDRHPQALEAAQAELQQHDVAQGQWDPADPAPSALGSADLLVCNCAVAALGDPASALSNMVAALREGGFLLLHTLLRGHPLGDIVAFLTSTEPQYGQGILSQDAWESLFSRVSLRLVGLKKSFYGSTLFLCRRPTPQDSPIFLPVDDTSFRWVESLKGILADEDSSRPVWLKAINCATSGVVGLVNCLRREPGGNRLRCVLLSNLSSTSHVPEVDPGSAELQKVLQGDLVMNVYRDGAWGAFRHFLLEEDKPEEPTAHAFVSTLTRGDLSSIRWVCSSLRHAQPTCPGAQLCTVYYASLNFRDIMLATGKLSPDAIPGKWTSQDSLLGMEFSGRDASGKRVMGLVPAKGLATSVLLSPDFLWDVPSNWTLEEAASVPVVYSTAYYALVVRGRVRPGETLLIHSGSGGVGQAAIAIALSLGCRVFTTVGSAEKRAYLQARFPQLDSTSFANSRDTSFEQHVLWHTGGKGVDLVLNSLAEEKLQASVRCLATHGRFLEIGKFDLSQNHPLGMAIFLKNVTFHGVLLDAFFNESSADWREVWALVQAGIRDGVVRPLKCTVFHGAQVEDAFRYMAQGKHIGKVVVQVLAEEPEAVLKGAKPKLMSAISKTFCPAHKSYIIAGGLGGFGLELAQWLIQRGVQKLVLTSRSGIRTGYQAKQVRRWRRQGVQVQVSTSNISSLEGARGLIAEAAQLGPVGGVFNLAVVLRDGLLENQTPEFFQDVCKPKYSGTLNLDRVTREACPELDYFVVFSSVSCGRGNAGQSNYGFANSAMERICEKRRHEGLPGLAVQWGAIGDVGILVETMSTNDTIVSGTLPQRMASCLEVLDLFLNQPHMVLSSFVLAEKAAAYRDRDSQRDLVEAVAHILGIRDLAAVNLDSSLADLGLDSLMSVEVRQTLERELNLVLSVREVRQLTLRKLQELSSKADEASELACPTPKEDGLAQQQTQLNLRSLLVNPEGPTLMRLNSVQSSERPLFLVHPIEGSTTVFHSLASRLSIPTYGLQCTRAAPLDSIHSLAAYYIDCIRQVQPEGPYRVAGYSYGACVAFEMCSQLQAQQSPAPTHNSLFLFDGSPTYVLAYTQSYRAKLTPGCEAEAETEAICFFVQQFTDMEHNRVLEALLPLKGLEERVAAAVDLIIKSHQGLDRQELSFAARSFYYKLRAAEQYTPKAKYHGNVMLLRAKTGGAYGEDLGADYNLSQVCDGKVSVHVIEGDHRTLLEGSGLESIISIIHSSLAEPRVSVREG

A word on the AC50: it is the concentration at which the activity in the assay is half-maximal. In the case of `C[C@H](CO)N1C[C@H](C)[C@@H](CN(C)Cc2ccncc2)Oc2cc(C3=CCCCC3)ccc2S1(=O)=O`, the values for the AC50 in test [1] and in test [2] were 12.3 µM (active) and 13.4 µM (active), respectively.

What is called IC50 is the concentration that inhibits the measured activity by half. Consider `Cc1cccc(C)c1OCC(=O)Nc1nnc(C2CCCO2)s1` (centres undefined), for which, at Protein skinhead-1, the IC50 was > 100 µM (inactive).

As to `CCN(CCCNC(=O)CC(C(=O)N1CCc2ccccc21)n1ccnc1)c1cccc(C)c1` (centres undefined), on Protein skinhead-1, the IC50 was > 100 µM (inactive).

As for `CCN(CC)CCn1c2ccc(Cl)cc2c2nc(C)sc21`, the concentration at half-maximal activity (AC50) is 22.1 µM (active) in test [3] and 5.39 µM (active) in [4].

With `OCCN1CCN(c2nc(-c3ccccc3O)nc3ccccc23)CC1`, the AC50 in test [3] was 7.01 µM (active).

On to `Oc1ccc(Nc2ccnc3cc(Cl)ccc23)cc1`, for which the AC50 in test [3] was 80.3 µM (active). For the same molecule, the IC50 in test [5] was 28.1 µM (active).

As for `CN(Cc1ccccc1)C(=O)COC(=O)c1cc(Cl)nc(Cl)c1`, the half-maximal inhibitory concentration (IC50) on Fatty acid synthase [6] was 13.5 µM (active); at Fatty acid synthase [7], 8.07 µM (active).

For the molecule `O=[N+]([O-])c1ccc(N2CCc3ccccc3C2)cc1`, the IC50 on Protein skinhead-1 is > 100 µM (inactive).

As to `CCOC(=O)c1cnc2c(Cl)cccc2c1NCCCN1CCOCC1`, in test [3], the half-maximal activity concentration (AC50) was 32.7 µM (active).

For `Cc1cc(NCCCN(C)C)n2c(nc3ccccc32)c1C#N`, in test [3], the half-maximal activity concentration (AC50) is 18.7 µM (active).

As to `O=C(N/C(=C/c1ccccc1)C(=O)N1CCOCC1)c1ccc([N+](=O)[O-])cc1`, the values for the 50% inhibitory concentration (IC50) at Fatty acid synthase [6] and at Fatty acid synthase [7] were 7.55 µM (active) and 16.8 µM (active), respectively.

As for `CNC(C)C#Cc1ccc2oc3cccc(OC)c3c(=O)c2c1` (centres undefined), in test [3], the half-maximal activity concentration (AC50) was 24.3 µM (active).

As to `CCCCN(CC)CCCNC(=S)Nc1ccc2nc(N3CCN(C)CC3)cc(C)c2c1`, the concentration at half-maximal activity (AC50) in test [3] was 30.8 µM (active); in test [4] it was 1.95 µM (active).

`CN(C)CCCNC(=O)/C(=C\C=C\c1ccccc1)NC(=O)c1ccc([N+](=O)[O-])cc1`: the IC50 at Fatty acid synthase [6] is 4.11 µM (active); on Fatty acid synthase [7] it was 0.87 µM (active).

As to `Clc1ccc(Cc2nc(-c3cccnc3)no2)cc1`, the half-maximal activity concentration (AC50) on Cytochrome P450 2C9 is 28.2 µM (inconclusive). At Protein skinhead-1, the IC50 is 36.4 µM (active).

In the case of `Nc1sccc1C(=O)NCc1ccccc1`, the IC50 on Protein skinhead-1 is > 100 µM (inactive).

Take `CC(CCc1ccco1)NC(=O)CSc1cc(=O)n(C)c2ccccc12` (centres undefined): the IC50 on Protein skinhead-1 is > 100 µM (inactive).

Regarding `O=C(COC(=O)c1cc([N+](=O)[O-])ccc1NCCO)c1ccccc1`, the IC50 was 8.98 µM (active) on Fatty acid synthase [6] and 8.17 µM (active) on Fatty acid synthase [7].

With `Cc1cccnc1Nc1nc(-c2ccc(F)cc2)cs1`, the IC50 on Protein skinhead-1 is 89.2 µM (inactive).

Consider `COc1ccc(NC(=O)COC(=O)c2cc([N+](=O)[O-])ccc2N2CCOCC2)cc1`, for which the concentration for half-maximal inhibition (IC50) at Fatty acid synthase [6] is 2.1 µM (active); at Fatty acid synthase [7], 2.92 µM (active).

`COc1ccc(N2CCn3c2nc2c3c(=O)n(CCCc3ccccc3)c(=O)n2C)c(OC)c1`: the figures for the AC50 in test [8] and in [1] were 5.71 µM (active) and 0.572 µM (active), respectively.

Turning to `O=C(CCC(=O)Nc1ccc(Br)cc1)N/N=C/c1cc([N+](=O)[O-])ccc1O`, the half-maximal inhibitory concentration (IC50) on Fatty acid synthase [6] was 8.73 µM (active); at Fatty acid synthase [7], 12.9 µM (active).
